Experimental data as given in paper PMC10892871 (Viruses, 2024).
Where “and” joins values, the source holds several entries; their conditions need not be identical. Identical values can stand only once.

System: Omicron BQ.1.1 SARS-CoV-2 variant
Format: cell-based

SMILES: O=c1nc(NO)ccn1[C@@H]1O[C@H](CO)[C@@H](O)[C@H]1O [EIDD-1931, reference compound]
- IC50 (read-out: IC50 vs. BQ.1.1 Mean ± SD): 1590 nM and 1600 nM
- IC90 (read-out: IC90 vs. BQ.1.1 Mean ± SD): 1800 ± 700 nM
